Laboratory results published in ChEMBL document CHEMBL1201862, “PubChem BioAssay data set” (2004).
Several values for one entry are separate records, joined by “and”; a condition that tells them apart may be missing. Equal values may be shown once. Activity calls are given as the source filed them.

Columns and labels:
[1] = target: Kappa-type opioid receptor (Homo sapiens, UniProt P41145); assay: SAR analysis of small molecule agonists of the kappa opioid receptor via a luminescent beta-arrestin assay - Set 3. [Related pubchem assays (depositor defined):AID1777, AID1785, AID1786, AID1966, AID2133, AID2136, AID2284, AID2500]; assay type: functional
Cytochrome P450 1A2 = target: T1, Cytochrome P450 1A2 (Homo sapiens, UniProt P05177);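 also: PubChem cytochrome P450 panel assay, CYP1A2 panel member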
T1 sequence (P05177 whole entry): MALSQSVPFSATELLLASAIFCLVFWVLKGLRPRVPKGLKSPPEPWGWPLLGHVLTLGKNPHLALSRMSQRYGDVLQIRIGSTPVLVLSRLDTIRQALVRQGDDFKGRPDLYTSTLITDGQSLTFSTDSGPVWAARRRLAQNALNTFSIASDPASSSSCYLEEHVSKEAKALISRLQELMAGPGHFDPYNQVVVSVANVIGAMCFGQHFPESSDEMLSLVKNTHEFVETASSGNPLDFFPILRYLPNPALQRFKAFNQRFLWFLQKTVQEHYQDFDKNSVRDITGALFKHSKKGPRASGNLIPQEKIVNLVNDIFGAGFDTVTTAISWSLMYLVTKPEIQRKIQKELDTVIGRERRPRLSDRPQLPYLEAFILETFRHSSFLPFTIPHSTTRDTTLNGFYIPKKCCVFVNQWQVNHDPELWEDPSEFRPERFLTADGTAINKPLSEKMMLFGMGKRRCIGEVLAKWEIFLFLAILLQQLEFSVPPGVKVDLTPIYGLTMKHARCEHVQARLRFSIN

Cytochrome P450 2D6 = Cytochrome P450 2D6 (Homo sapiens, UniProt P10635);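 also: CYP2D6 member of a cytochrome P450 panel assay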
[2] = target: T2, Heat shock factor protein 1 (Mus musculus, UniProt P38532); assay: inhibition of MG132-induced HSE-luciferase signal, confirmation, cell-based, NIH3T3, luminescence, dose retest (AID 2382); assay type: functional;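 also: NIH3T3 fibroblasts with HSF1-driven luciferase reporter stressed by proteasome inhibitor MG132; luminescence from HSF1-driven luciferase expression after 8 hours of MG132 stress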
T2 sequence (P38532 whole entry): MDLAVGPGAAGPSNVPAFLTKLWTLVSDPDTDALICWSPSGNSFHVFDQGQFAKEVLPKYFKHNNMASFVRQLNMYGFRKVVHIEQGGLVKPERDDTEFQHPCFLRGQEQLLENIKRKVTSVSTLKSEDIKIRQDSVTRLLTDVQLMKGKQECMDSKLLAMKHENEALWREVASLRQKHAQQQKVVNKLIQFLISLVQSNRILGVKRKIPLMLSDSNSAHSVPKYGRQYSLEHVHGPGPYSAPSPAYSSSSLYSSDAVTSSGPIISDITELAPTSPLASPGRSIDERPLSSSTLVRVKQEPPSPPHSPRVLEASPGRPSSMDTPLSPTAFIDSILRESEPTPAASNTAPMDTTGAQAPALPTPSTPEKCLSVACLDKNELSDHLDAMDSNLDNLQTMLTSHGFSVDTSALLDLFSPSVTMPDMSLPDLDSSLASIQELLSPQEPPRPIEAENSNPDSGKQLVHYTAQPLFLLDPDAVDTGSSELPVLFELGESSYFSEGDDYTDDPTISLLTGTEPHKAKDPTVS

[3] = target: Tyrosine-protein phosphatase non-receptor type 7 (Homo sapiens, UniProt P35236); assay: redox-dependent HePTP inhibition, mechanism study, biochemical, fluorescence (AID 2068); assay type: functional
[4] = target: Dual specificity protein phosphatase 6 (Rattus norvegicus, UniProt Q64346); assay type: functional;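 also: confirmatory in vitro dose-response testing of MKP-3 inhibition; recombinant His-tagged MKP-3 made in E. coli BL21 with OMFP substrate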
Chain of Dual specificity protein phosphatase 6 (Q64346 whole entry): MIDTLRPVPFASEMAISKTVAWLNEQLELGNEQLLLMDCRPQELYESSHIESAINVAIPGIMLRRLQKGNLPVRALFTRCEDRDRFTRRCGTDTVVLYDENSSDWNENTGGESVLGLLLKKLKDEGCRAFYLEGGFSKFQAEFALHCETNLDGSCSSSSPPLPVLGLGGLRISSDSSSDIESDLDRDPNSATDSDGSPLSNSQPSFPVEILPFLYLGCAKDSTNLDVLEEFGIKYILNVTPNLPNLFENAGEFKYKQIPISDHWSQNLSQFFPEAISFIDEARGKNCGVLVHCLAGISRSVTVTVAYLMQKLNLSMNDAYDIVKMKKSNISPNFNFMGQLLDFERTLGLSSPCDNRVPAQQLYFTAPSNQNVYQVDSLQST

Chain of Cytochrome P450 2D6 (P10635 whole entry): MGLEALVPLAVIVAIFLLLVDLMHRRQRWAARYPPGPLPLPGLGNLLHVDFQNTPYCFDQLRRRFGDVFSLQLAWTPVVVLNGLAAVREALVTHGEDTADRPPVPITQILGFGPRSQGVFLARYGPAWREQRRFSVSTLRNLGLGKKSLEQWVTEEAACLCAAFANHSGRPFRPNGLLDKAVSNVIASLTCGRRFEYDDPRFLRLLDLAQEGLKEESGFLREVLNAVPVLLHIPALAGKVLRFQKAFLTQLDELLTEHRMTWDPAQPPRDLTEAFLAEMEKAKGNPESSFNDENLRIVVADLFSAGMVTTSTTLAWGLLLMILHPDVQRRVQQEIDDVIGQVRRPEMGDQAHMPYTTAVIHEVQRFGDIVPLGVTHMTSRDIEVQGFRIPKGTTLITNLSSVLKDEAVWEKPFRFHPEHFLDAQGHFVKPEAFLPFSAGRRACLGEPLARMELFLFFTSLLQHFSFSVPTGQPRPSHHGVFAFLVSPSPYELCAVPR
Chain of Kappa-type opioid receptor (P41145 whole entry): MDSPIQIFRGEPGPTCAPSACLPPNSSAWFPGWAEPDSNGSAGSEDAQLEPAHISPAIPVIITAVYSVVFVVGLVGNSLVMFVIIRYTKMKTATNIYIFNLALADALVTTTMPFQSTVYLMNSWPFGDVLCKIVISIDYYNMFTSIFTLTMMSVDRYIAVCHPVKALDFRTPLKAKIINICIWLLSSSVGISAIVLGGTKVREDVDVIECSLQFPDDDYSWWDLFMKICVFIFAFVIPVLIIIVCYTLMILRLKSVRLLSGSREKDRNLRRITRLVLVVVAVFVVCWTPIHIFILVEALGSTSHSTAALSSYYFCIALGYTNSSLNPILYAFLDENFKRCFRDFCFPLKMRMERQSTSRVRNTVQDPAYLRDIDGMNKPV
Chain of Tyrosine-protein phosphatase non-receptor type 7 (P35236 whole entry): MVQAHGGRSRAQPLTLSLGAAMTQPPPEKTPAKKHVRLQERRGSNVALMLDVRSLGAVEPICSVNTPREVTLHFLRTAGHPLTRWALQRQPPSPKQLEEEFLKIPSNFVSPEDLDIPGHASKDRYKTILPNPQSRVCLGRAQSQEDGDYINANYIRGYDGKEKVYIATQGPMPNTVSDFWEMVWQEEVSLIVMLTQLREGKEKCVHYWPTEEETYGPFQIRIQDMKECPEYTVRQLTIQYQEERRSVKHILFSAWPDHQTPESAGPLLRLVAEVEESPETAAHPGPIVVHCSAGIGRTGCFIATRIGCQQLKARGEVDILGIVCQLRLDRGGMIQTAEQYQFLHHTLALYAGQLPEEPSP

For CCCCN(Cc1cc2cc(Cl)ccc2[nH]c1=O)C(=O)c1ccccn1, the EC50 [1] was 1.87 µM (active).

Cc1ccc(N(CC2=NCCN2)c2cccc(O)c2)cc1 [PHENTOLAMINE] was tested, and the AC50 (Cytochrome P450 1A2) was “inactive”, the AC50 (Cytochrome P450 2D6) was 794 nM (active) and 1.12 µM (active) and the EC50 [2] was > 195 µM (not active).

COc1cc(C(=S)NCc2ccc(F)c(C)c2)ccc1O was tested, and the IC50 [3] was 4.33 µM (active) and the IC50 [4] was > 100 µM (inactive).
